Key:
Melanocortin receptor 4 [1] = target: T1, Melanocortin receptor 4 (Homo sapiens, UniProt P32245); assay: Maximum percentage of cAMP accumulation compared to alpha-MSH at human melanocortin 4 receptor at 10 uM; format: functional
Melanocortin receptor 4 [2] = target: T1, Melanocortin receptor 4; assay: Inhibition of [125I]-NDP- alpha-MSH binding to human melanocortin 4 receptor expressed in CHO cells; format: cell-based
Melanocortin receptor 4 [3] = target: T1, Melanocortin receptor 4; assay: Maximum percentage of cAMP accumulation relative to alpha-MSH at human melanocortin 4 receptor at 10 uM; format: functional
Melanocortin receptor 4 [4] = target: T1, Melanocortin receptor 4; assay: Effective concentration at human melanocortin 4 receptor in cAMP release assay; format: functional

T1 sequence (P32245 whole entry): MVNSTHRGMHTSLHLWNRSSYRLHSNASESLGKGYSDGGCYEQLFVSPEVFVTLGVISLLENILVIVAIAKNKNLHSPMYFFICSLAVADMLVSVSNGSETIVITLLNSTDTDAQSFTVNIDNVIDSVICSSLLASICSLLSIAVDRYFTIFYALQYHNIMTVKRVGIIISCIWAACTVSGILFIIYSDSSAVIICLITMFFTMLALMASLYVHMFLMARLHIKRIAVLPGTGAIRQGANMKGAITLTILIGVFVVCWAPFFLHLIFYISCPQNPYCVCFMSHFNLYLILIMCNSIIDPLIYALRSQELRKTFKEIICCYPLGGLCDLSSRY

Row | SMILES | Max (Melanocortin receptor 4 [1]) [%] | IC50 (Melanocortin receptor 4 [2]) [µM] | Max (Melanocortin receptor 4 [3]) [%] | EC50 (Melanocortin receptor 4 [4]) [µM]
1 | COc1ccc(-n2nc(Sc3ccc(Cl)cc3)cc(CC[C@@H](C)NC(=O)[C@H]3CNCC[C@@H]3c3ccc(Cl)cc3Cl)c2=O)cc1 | 2 | 0.0032 |  | 
2 | COc1ccc(N2N=C(Sc3ccc(Cl)cc3)CC(CC[C@@H](C)NC(=O)[C@@H]3CNCC[C@H]3c3ccc(F)cc3)C2=O)cc1 (stereo in doubt; 61) [listing 1 of 2 here] |  |  | 32 | 
3 | COc1ccc(-n2nc(Sc3ccc(Cl)cc3)cc(CC[C@@H](C)NC(=O)[C@H]3CNCC[C@@H]3c3ccccc3F)c2=O)cc1 |  | 0.013 | 58 | 0.55
4 | COc1ccc(-n2nc(Sc3ccc(Cl)cc3)cc(CC[C@@H](C)NC(=O)[C@H]3CNCC[C@@H]3c3cccc(F)c3)c2=O)cc1 | 29 | 0.49 |  | 
5 | COc1ccc(-n2nc(Sc3ccc(Cl)cc3)cc(CC[C@@H](C)NC(=O)[C@H]3CCNC[C@@H]3Cc3ccccc3)c2=O)cc1 | 36 | 0.75 |  | 
6 | COc1ccc(-n2nc(Sc3ccc(Cl)cc3)cc(CC[C@@H](C)NC(=O)[C@H]3CCNC[C@@H]3c3ccc(Cl)cc3Cl)c2=O)cc1 |  | 0.036 | 30 | 2.4
7 | COc1ccc(N2N=C(Sc3ccc(Cl)cc3)CC(CC[C@@H](C)NC(=O)[C@@H]3CCNC[C@H]3c3ccc(F)cc3)C2=O)cc1 (stereo in doubt; 65) [listing 1 of 2 here] |  | 0.28 |  | 1.4
8 | COc1ccc(-n2nc(Sc3ccc(Cl)cc3)cc(CC[C@@H](C)NC(=O)[C@H]3CCNC[C@@H]3c3ccc(Cl)cc3)c2=O)cc1 |  | 0.058 | 101 | 0.15
9 | COc1ccc(N2N=C(Sc3ccc(Cl)cc3)CC(CC[C@@H](C)NC(=O)C3CNC[C@H]3c3ccc(F)cc3)C2=O)cc1 (single isomer, unassigned; 68) [listing 1 of 2 here] |  | 0.78 |  | 4
10 | COc1ccc(-n2nc(Sc3ccc(Cl)cc3)cc(CC[C@@H](C)NC(=O)[C@H]3CNCC[C@@H]3c3ccccc3)c2=O)cc1 |  |  | 77 | 
11 | COc1ccc(N2N=C(Sc3ccc(Cl)cc3)CC(CC[C@@H](C)NC(=O)[C@@H]3CNCC[C@H]3c3ccc(F)cc3)C2=O)cc1 (stereo in doubt; 61) [listing 2 of 2 here] |  | 0.69 |  | 4
12 | COc1ccc(-n2nc(Sc3ccc(Cl)cc3)cc(CC[C@@H](C)NC[C@@H]3CNCC[C@H]3c3ccc(F)cc3)c2=O)cc1 | 9 | 0.29 |  | 
13 | COc1ccc(N2N=C(Sc3ccc(Cl)cc3)CC(CC[C@@H](C)NC(=O)C3CNC[C@H]3c3ccc(F)cc3)C2=O)cc1 (single isomer, unassigned; 69) [listing 1 of 2 here] |  |  | 48 | 
14 | COc1ccc(N2N=C(Sc3ccc(Cl)cc3)CC(CC[C@@H](C)NC(=O)C3CNC[C@H]3c3ccc(F)cc3)C2=O)cc1 (single isomer, unassigned; 69) [listing 2 of 2 here] |  | 0.43 |  | 0.74
15 | COc1ccc(N2N=C(Sc3ccc(Cl)cc3)CC(CC[C@@H](C)NC(=O)C3CNC[C@@H]3c3ccc(F)cc3)C2=O)cc1 (single isomer, unassigned; 66) [listing 1 of 2 here] |  |  | 90 | 
16 | COc1ccc(-n2nc(Sc3ccc(Cl)cc3)cc(CC[C@@H](C)NC(=O)[C@H]3CCNC[C@@H]3c3ccccc3F)c2=O)cc1 |  | 0.1 | 75 | 0.55
17 | COc1ccc(N2N=C(Sc3ccc(Cl)cc3)CC(CC[C@@H](C)NC(=O)[C@H]3CCNC[C@@H]3c3ccc(F)cc3)C2=O)cc1 (stereo in doubt; 62) [listing 1 of 2 here] |  |  | 100 | 
18 | COc1ccc(-n2nc(Sc3ccc(Cl)cc3)cc(CC[C@@H](C)NC(=O)[C@H]3CNCC[C@@H]3c3cccc(Cl)c3)c2=O)cc1 |  | 0.043 | 37 | 0.68
19 | COc1ccc(-n2nc(Sc3ccc(Cl)cc3)cc(CC[C@@H](C)NC(=O)[C@H]3CNCC[C@@H]3c3ccc4ccccc4c3)c2=O)cc1 | 12 | 0.017 |  | 
20 | COc1ccc(-n2nc(Sc3ccc(Cl)cc3)cc(CC[C@@H](C)NC(=O)[C@H]3CNCC[C@@H]3c3cccc4ccccc34)c2=O)cc1 | 22 | 0.089 |  | 
21 | COc1ccc(N2N=C(Sc3ccc(Cl)cc3)CC(CC[C@@H](C)NC(=O)[C@H]3CCNC[C@@H]3c3ccc(F)cc3)C2=O)cc1 (stereo in doubt; 62) [listing 2 of 2 here] |  | 0.54 |  | 0.48
22 | COc1ccc(-n2nc(Sc3ccc(Cl)cc3)cc(CC[C@@H](C)NC(=O)[C@H]3CNCCN3c3ccc(F)cc3)c2=O)cc1 | 6 | 0.95 |  | 
23 | COc1ccc([C@H]2CNC[C@@H]2C(=O)N[C@H](C)CCc2cc(Sc3ccc(Cl)cc3)nn(-c3ccc(OC)cc3)c2=O)cc1 |  | 0.019 | 67 | 0.43

Row | SMILES | Max (Melanocortin receptor 4 [1]) [%] | IC50 (Melanocortin receptor 4 [2]) [µM] | Max (Melanocortin receptor 4 [3]) [%] | EC50 (Melanocortin receptor 4 [4]) [µM]
24 | COc1ccc(N2N=C(Sc3ccc(Cl)cc3)CC(CC[C@@H](C)NC(=O)[C@@H]3CCNC[C@H]3c3ccc(F)cc3)C2=O)cc1 (stereo in doubt; 64) [listing 1 of 2 here] |  | 1.3 |  | 2
25 | COc1ccc(-n2nc(Sc3ccc(Cl)cc3)cc(CC[C@@H](C)NC(=O)[C@H]3CCNC[C@@H]3c3ccccc3)c2=O)cc1 |  |  | 85 | 
26 | COc1ccc(N2N=C(Sc3ccc(Cl)cc3)CC(CC[C@@H](C)NC(=O)[C@H]3CNCC[C@@H]3c3ccc(F)cc3)C2=O)cc1 (stereo in doubt; 25) [listing 1 of 2 here] |  | 0.026 |  | 0.39
27 | COc1ccc(-n2nc(Sc3ccc(Cl)cc3)cc(CC[C@@H](C)NC(=O)[C@@H]3CNCCN3c3ccc(F)cc3)c2=O)cc1 |  | 0.028 | 75 | 1.1
28 | COc1ccc(N2N=C(Sc3ccc(Cl)cc3)CC(CC[C@@H](C)NC(=O)[C@@H]3CNCC[C@H]3c3ccc(F)cc3)C2=O)cc1 (stereo in doubt; 60) [listing 1 of 2 here] |  | 0.56 |  | 
29 | COc1ccc(-n2nc(Sc3ccc(Cl)cc3)cc(CC[C@@H](C)NC(=O)[C@H]3CNC[C@@H]3c3ccccc3F)c2=O)cc1 |  | 0.16 | 82 | 0.71
30 | COc1ccc(N2N=C(Sc3ccc(Cl)cc3)CC(CC[C@@H](C)NC(=O)[C@H]3CNCC[C@@H]3c3ccc(F)cc3)C2=O)cc1 (stereo in doubt; 25) [listing 2 of 2 here] |  |  | 72 | 
31 | COc1ccc(N2N=C(Sc3ccc(Cl)cc3)CC(CC[C@@H](C)NC(=O)[C@@H]3CNCC[C@H]3c3ccc(F)cc3)C2=O)cc1 (stereo in doubt; 60) [listing 2 of 2 here] | 20 |  |  | 
32 | COc1ccc(-n2nc(Sc3ccc(Cl)cc3)cc(CC[C@@H](C)NC(=O)[C@H]3CNC[C@@H]3c3ccc(F)cc3F)c2=O)cc1 |  | 0.06 | 81 | 0.2
33 | COc1ccc(N2N=C(Sc3ccc(Cl)cc3)CC(CC[C@@H](C)NC(=O)[C@@H]3CCNC[C@H]3c3ccc(F)cc3)C2=O)cc1 (stereo in doubt; 64) [listing 2 of 2 here] |  |  | 16 | 
34 | COc1ccc(-n2nc(Sc3ccc(Cl)cc3)cc(CC[C@@H](C)NC(=O)[C@H]3CCNC[C@@H]3c3ccc(C(F)(F)F)cc3)c2=O)cc1 |  | 0.2 | 75 | 0.71
35 | COc1ccc(-n2nc(Sc3ccc(Cl)cc3)cc(CC[C@@H](C)N(C)C(=O)C3CNCCC3c3ccc(F)cc3)c2=O)cc1 (stereo partly specified) |  | 0.093 | 94 | 0.41
36 | COc1ccc(-n2nc(Sc3ccc(Cl)cc3)cc(CC[C@@H](C)NC(=O)[C@H]3CNC[C@@H]3c3ccccc3)c2=O)cc1 |  | 0.098 | 103 | 0.4
37 | COc1ccc(N2N=C(Sc3ccc(Cl)cc3)CC(CC[C@@H](C)NC(=O)[C@@H]3CCNC[C@H]3c3ccc(F)cc3)C2=O)cc1 (stereo in doubt; 65) [listing 2 of 2 here] |  |  | 33 | 
38 | COc1ccc(-n2nc(Sc3ccc(Cl)cc3)cc(CC[C@@H](C)NC[C@H]3CNCC[C@@H]3c3ccc(F)cc3)c2=O)cc1 |  | 0.028 | 60 | 0.47
39 | COc1ccc(-n2nc(Sc3ccc(Cl)cc3)cc(CC[C@@H](C)NC(=O)[C@H]3CNCC[C@@H]3c3ccc(Cl)cc3)c2=O)cc1 |  | 0.0024 | 39 | 0.21
40 | COc1ccc(-n2nc(Sc3ccc(Cl)cc3)cc(CC[C@@H](C)NC(=O)[C@H]3CCNC[C@@H]3c3ccc(C#N)cc3)c2=O)cc1 |  | 0.045 | 81 | 0.12
41 | COc1ccc(-n2nc(Sc3ccc(Cl)cc3)cc(CC[C@@H](C)NC(=O)[C@H]3CNC[C@@H]3c3ccc(C)cc3)c2=O)cc1 |  | 0.028 | 67 | 0.75
42 | COc1ccc(N2N=C(Sc3ccc(Cl)cc3)CC(CC[C@@H](C)NC(=O)C3CNC[C@@H]3c3ccc(F)cc3)C2=O)cc1 (single isomer, unassigned; 66) [listing 2 of 2 here] |  | 0.047 |  | 1.2
43 | COc1ccc(-n2nc(Sc3ccc(Cl)cc3)cc(CC[C@@H](C)NC(=O)[C@H]3CN(C)CC[C@@H]3c3ccc(F)cc3)c2=O)cc1 |  | 0.0047 | 59 | 0.32
44 | COc1ccc(-n2nc(Sc3ccc(Cl)cc3)cc(CC[C@@H](C)NC(=O)[C@H]3CNC[C@@H]3c3ccc(Cl)cc3)c2=O)cc1 |  | 0.045 | 70 | 0.23
45 | COc1ccc(N2N=C(Sc3ccc(Cl)cc3)CC(CC[C@@H](C)NC(=O)C3CNC[C@H]3c3ccc(F)cc3)C2=O)cc1 (single isomer, unassigned; 68) [listing 2 of 2 here] |  |  | 26 | 

From ChEMBL document CHEMBL1142811, “Design and syntheses of melanocortin subtype-4 receptor agonists. Part 2: discovery of the dihydropyridazinone motif” (Bioorg Med Chem Lett, 2005)
